Results taken from ChEMBL document CHEMBL1139813, “Synthesis and biological evaluation of amino-pyridines as androgen receptor antagonists for stimulating hair growth and reducing sebum production” (Bioorg Med Chem Lett, 2007).
pIC50: −log10 of the molar value. The source made the active and inactive calls. No cut-off for these calls is given here.

Key:
[1] = Clearance in Beagle dog plasma at 0.5 mg/kg, iv; assay type: ADME, organism-based, Canis lupus familiaris; design: dose 0.5 mg/kg, route intravenous
Mus musculus = assay: Stimulation of hair growth in C3H/HeN mouse at 3% concentration administered for 5 days, bid per week for 4 weeks; assay type: functional, organism-based
Syrian golden hamster = assay: Reduction in sebum production in syrian hamster ear model at 3% concentration administered for 5 days, bid per week for 2 weeks; assay type: functional, Mesocricetus auratus; design: scale not given: the % may be the effect or the level left
Androgen receptor [2] = molecular target: T1, Androgen receptor (Homo sapiens, UniProt P10275)
T1 sequence (P10275 whole entry): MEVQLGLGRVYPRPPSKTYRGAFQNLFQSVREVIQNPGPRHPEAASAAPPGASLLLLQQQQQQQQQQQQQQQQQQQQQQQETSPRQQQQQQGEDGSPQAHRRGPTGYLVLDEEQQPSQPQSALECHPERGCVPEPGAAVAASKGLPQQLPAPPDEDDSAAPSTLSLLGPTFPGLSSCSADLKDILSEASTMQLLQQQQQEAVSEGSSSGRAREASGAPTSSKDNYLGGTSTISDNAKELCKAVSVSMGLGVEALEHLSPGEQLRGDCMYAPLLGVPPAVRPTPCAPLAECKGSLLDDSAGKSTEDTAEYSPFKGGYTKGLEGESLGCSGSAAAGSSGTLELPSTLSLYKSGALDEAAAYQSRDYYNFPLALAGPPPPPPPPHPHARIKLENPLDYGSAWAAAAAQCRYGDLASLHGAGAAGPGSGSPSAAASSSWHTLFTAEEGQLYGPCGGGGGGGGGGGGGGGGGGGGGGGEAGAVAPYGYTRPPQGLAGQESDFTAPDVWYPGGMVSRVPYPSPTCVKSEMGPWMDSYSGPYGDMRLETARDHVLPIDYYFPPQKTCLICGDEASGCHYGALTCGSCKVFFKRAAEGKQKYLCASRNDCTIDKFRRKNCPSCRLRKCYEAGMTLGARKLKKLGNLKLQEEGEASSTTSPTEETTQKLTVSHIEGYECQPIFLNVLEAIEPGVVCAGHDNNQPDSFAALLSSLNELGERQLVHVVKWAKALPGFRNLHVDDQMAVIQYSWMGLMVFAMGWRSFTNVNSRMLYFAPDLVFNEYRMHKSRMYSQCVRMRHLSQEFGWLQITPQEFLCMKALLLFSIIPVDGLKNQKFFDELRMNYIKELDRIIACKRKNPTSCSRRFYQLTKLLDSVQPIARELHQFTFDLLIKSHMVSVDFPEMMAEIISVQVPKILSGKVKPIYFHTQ
Description: Antagonist activity at human androgen receptor expressed in MDA-MB-453 cells

Androgen receptor [3] = molecular target: T1, Androgen receptor; assay: biochemical
Description: Displacement of [3H]dihydrotestosterone from human androgen receptor expressed in Sf9 cells

| Structure (SMILES) | clearance [1] [mL/min/kg] | Activity (Mus musculus) | Activity (Syrian golden hamster) [%] | pIC50 (Androgen receptor [2]) | pIC50 (Androgen receptor [3]) |
| --- | --- | --- | --- | --- | --- |
| C[C@H](c1ccccc1)N(C)c1cc(C(F)(F)F)c(C#N)cn1 | 40 | Active | 83 | 7.35 | – |
| C[C@@H](c1ccccc1)N(C)c1cc(C(F)(F)F)c(C#N)cn1 | – | – | – | – | 5.77 |
| N#Cc1cnc(N2CCC3CCCCC3C2)cc1C(F)(F)F (stereo not drawn) | – | – | – | 6.59 | 6.77 |
| CCC(C)N(C)c1cc(C(F)(F)F)c(C#N)cn1 (stereo not drawn) | – | – | – | < 6.00 | 8.15 |
| CC1(C)C(=O)N(c2ccc(C#N)c(C(F)(F)F)c2)C(=O)N1CCCCO [RU-58841] | – | – | 92 | – | – |
| CC1CCN(c2cc(C(F)(F)F)c(C#N)cn2)CC1 | – | – | – | 6.87 | 7.14 |
| N#Cc1cnc(N2CCCCC2)cc1C(F)(F)F | – | – | – | 6.37 | 6.68 |
| CC(c1ccccc1)N(C)c1cc(C(F)(F)F)c(C#N)cn1 (stereo not drawn) | – | – | – | 6.64 | – |
| C[C@@H](Nc1cc(C(F)(F)F)c(C#N)cn1)c1ccccc1 | – | – | – | – | 5.31 |
| CCCN(CCC)c1cc(C(F)(F)F)c(C#N)cn1 | – | – | – | < 6.00 | 7.11 |
